The numbers were not newly measured in patent publication US7183293B2, “Ether derivatives useful as inhibitors of PDE4 isozymes” (Pfizer Inc., priority 2001, dated 2007), which cites them from elsewhere.

One data set deals with human PDE4B2B (Homo sapiens, UniProt Q07343).
Data set [1] deals with 5-lipoxygenase. The settings on record: in vivo.
For data set [2] the following is noted: in vivo.
For data set [3], the system named is LPS-stimulated ex vivo TNF release and PHA induced lymphocyte proliferation. The note with it: oral dose of 300 mg.
A further data set concerns canine tracheal PDE4. The note with it: at 100 nM.
Data set [4] has as its system dextran sulfate induced colitis. The note with it: rat.
The next data set has as its system rheumatoid arthritis. Set-up: dose or concentration left out as unconfirmed. The note with it: 35 patients.
The next data set deals with SCW-induced arthritis. The note with it: in vivo.
The test system of another data set is PDE4B mutant enzyme. The note with it: alanine for aspartate in the catalytic region.
Data set [5] deals with antigen-induced bronchospasm. The note with it: rat.
The target of a further data set is PDE4D (Homo sapiens, UniProt Q08499).
Another data set deals with psoriatic lesions. The note with it: in vivo.
Data set [6] concerns FEV1 and forced vital capacity.
The test system of data set [7] is 5-lipoxygenase. The settings on record: a number of species.
The subject of another data set is bronchodilation. The note with it: in vivo.
For data set [8], the system named is lipopolysaccharide-induced bowel erythrocyte extravasation. The note with it: rats; for lipopolysaccharide-induced bowel erythrocyte extravasation: pretreatment i.p. 3×.
Data set [9] deals with lipopolysaccharide-induced mesenteric blood flow fall. The settings on record: dogs.
The subject of data set [10] is mineralized nodule formation and osteoclast-like cell formation.
The subject of a further data set is bone loss. The settings on record: serial oral administrations.
The subject of data set [11] is mean pulmonary artery pressure. The settings on record: oral administration, clinical conditions.
The subject of data set [12] is T-cell mediated hepatic failure.
Data set [13] has as its system experimental allergic encephalomyelitis. The note with it: marmoset.
Data set [14] concerns collagen induced arthritis.

Each structure is given as a SMILES string.

Sequence of PDE4D (Q08499 whole entry, species assumed): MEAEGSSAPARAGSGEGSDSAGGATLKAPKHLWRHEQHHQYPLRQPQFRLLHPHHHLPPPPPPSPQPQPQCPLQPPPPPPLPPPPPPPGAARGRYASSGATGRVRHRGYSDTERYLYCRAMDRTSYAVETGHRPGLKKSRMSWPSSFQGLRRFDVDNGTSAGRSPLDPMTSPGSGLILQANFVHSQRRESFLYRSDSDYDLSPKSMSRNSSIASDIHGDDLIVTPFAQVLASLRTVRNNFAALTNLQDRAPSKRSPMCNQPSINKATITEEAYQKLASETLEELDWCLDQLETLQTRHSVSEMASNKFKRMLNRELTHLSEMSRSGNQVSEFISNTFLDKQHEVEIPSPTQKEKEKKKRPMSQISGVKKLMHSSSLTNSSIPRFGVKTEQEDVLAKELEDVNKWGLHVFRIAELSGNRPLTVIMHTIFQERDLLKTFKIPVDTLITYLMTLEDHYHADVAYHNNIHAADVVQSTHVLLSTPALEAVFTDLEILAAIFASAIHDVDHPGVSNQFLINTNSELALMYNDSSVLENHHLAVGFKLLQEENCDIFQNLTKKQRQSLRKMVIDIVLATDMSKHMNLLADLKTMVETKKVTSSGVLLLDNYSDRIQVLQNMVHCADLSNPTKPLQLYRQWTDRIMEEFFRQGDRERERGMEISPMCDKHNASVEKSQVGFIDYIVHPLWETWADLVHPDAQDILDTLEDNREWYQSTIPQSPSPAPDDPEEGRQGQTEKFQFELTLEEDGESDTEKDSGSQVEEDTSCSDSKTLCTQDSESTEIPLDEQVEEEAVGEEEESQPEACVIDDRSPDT
Sequence of human PDE4B2B (Q07343 1-564 isoform Q07343-2): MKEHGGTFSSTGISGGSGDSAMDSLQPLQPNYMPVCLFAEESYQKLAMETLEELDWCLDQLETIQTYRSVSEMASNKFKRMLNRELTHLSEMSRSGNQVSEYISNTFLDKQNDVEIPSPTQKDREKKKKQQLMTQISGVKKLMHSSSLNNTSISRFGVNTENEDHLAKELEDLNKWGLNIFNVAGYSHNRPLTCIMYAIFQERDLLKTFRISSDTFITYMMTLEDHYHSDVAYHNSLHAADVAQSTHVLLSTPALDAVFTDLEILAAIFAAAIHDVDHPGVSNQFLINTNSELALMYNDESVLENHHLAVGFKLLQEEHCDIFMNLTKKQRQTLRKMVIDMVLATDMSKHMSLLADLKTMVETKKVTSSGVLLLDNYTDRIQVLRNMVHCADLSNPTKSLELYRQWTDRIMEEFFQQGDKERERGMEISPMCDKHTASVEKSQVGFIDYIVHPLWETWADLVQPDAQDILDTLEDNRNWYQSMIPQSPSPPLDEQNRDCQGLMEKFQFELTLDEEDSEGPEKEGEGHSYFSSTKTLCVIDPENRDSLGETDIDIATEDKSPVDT

`COC(=O)N1C[C@H](c2ccc(OC)c(OC3CCCC3)c2)[C@@](C)(C(C)=O)C1` (racemic) [Formula (0.0.61), (R,R)-(+/−)-methyl-3-acetyl-4-[3-(cyclopentyloxy)-4-methoxyphenyl]-3-methyl-1-pyrrolidine carboxylate]: the “affinity to the catalytic and the HARB sites” value on human PDE4B2B is “equal affinity”. `C[C@H](C#Cc1ccc(Oc2ccc(F)cc2)o1)N(O)C(N)=O` [Abbott-79175]: the duration of action entry with 5-lipoxygenase [1] is listed as “longer duration of action than zileuton”. In the case of `Nc1nc2c([nH]1)c(=O)n(CC1CC1)c(=O)n2CC1CC1` [BRL-61,063], the “emesis / nausea and vomiting” value in data set [2] was “nausea and vomiting”. Regarding `COc1ccc(C2CNC(=O)NC2)cc1O[C@H]1C[C@@H]2CC[C@H]1C2` [CP-80,633], in [2], the “emesis / nausea and vomiting” value is reported as “elicit emesis”. With `CCCn1c(=O)c2c(C)nc(CC)n2c2nc(OC)ccc21` [Example D-22888], the rhinorrhea entry with rhinorrhea (antigen-challenged pig) is “inhibit rhinorrhea”. Besides, in the data set on rhinorrhea (pig, in vivo), the anti-allergic effect result is on record as “strong anti-allergic affect”. As for `CCNc1ncn(Cc2ccc(OC)c(OC3CCCC3)c2)c2nc(C(C)C)nc1-2` [Example V-11294A], the “reducing TNF levels and lymphocyte proliferation” value in data set [3] is recorded as “effective”. In the case of `COc1ccc(C(=O)Cc2c(Cl)cncc2Cl)c2c1OCCCCO2` [Formula (0.0.49)], the “inhibition of canine tracheal PDE4” value in the data set with canine tracheal PDE4 was “almost complete inhibition”. With `Clc1nc2c(N3CCCC3)nc(N3CCNCC3)nc2nc1NCc1ccccc1` [Formula (0.0.55)], the “inhibition of the growth of tumor cells” value in the data set on tumor cells was “micromolar concentrations”.

As for `CCCn1c(=O)c2[nH]cnc2n(-c2ccc(Cl)cc2)c1=O` [LAS31025], in data set [4], the “effects in dextran sulfate induced colitis (bleeding and inflammatory markers)” value is listed as “beneficial effects comparable to prednisolone”. For the compound `COc1ccc(C(=O)Nc2c(Cl)cncc2Cl)cc1OC1CCCC1` [RP73401], the “clinical improvement, C-reactive protein and IL-6 serum levels” value with rheumatoid arthritis is listed as “positive trend towards clinical improvement”. Moreover, the “amelioration of disease (joint destruction, synovitis, fibrosis)” value in the data set on SCW-induced arthritis is listed as “significant amelioration of disease”. As for `COc1ccc(C(=O)Nc2c(Cl)cncc2Cl)cc1OC1CCCC1` [RP-73,401], in [2], the “emesis / nausea and vomiting” value is listed as “elicit emesis”. Moreover, the “inhibition of mutant PDE4B” value with PDE4B mutant enzyme was “lose potency”. For `COc1ccc(C(=O)Nc2c(C)noc2C)cc1OC1CCCC1` [RPR-132294], the “inhibition of antigen-induced bronchospasm” value in data set [5] is recorded as “activity”. Take `O=c1c2cccnc2n(-c2cccc([N+](=O)[O-])c2)c(=O)n1Cc1ccncc1` [RS-23,544]: the “emesis / nausea and vomiting” value in data set [2] is reported as “elicit emesis”.

With `O=c1c2cccnc2n(-c2cccc([N+](=O)[O-])c2)c(=O)n1Cc1ccncc1` [RS-25,344], on PDE4D, the “potency against PDE4 subtypes” value is listed as “more potent against PDE4D”.

For `CCCCOc1cc(CC2CNC(=O)N2)ccc1OC` (centres unmarked) [Ro 20-1724], the “adverse systemic or cutaneous effects” value in the data set on psoriatic lesions is reported as “without adverse systemic or cutaneous effects”.

With `COc1ccc(CC2CNC(=O)N2)cc1OC1CCCC1` (centres unmarked) [Ro-20-1724], in the data set on PDE4B mutant enzyme, the “inhibition of mutant PDE4B” value is listed as “lose potency”. For `COc1ccc([C@]2(C#N)CC[C@@H](C(=O)O)CC2)cc1OC1CCCC1` [SB-207,499], in data set [6] (15 mg twice a day for six weeks), the “FEV and forced vital capacity (FVC)” value was “increrases”. Also, in [6] (four week trial, six week study, 15 mg twice a day), the FEV1 result is “improved FEV1”. Regarding `COC1(c2cc(F)cc(OCc3ccc4c(ccc(=O)n4C)c3)c2)CCOCC1` [ZD-2138], in the data set on 5-lipoxygenase [7], the oral activity result is “highly active orally”. As to `COc1cc2c(cc1OC)[C@@H]1CN(C)CC[C@@H]1N=C2c1ccc(NC(C)=O)cc1` [benafentrine], the bronchodilation entry in the data set with bronchodilation was “bronchodilation only when administered by inhalation”. In the case of `CCCCn1c(=O)c2c(ncn2CC(C)=O)n(CCCC)c1=O` [debufylline], the “lipopolysaccharide-induced bowel erythrocyte extravasation” value in data set [8] is listed as “reduces”. Take `CCCCn1c(=O)c2c(ncn2CC(C)=O)n(CCCC)c1=O` [denbufylline]: the “lipopolysaccharide induced intestinal hypoperfusion” value in [9] is “attenuated”. Besides, in data set [8], the “lipopolysaccharide induced erythrocyte extravasation” value is recorded as “attenuated”. In data set [10], the “number of mineralized nodules” value is “increase in the number of mineralized nodules”. Further, in the data set on bone loss, the “bone mineral density of femurs” value is reported as “inhibit the decrease in the bone mineral density”.

For `CSc1ccc(C(=O)c2[nH]c(=O)[nH]c2C)cc1` [enoximone], the “mean pulmonary artery pressure” value in data set [11] is given as “decreases”.

As for `Cc1[nH]c(=O)c(C#N)cc1-c1ccncc1` [milrinone], in the data set on bronchodilation, the adverse events result was “tachycardia and hypotension”; the bronchodilation entry is “short-lived bronchodilation”; the “protection against induced bronchoconstriction” value is recorded as “slight degree of protection”. Further, the “relaxant activities of isoproterenol and forskolin” value in the data set on pulmonary artery rings was “same effect”. Also, the “mean pulmonary artery pressure” value in data set [11] is “decreases”. In the case of `CC(=O)CCCCn1c(=O)c2c(ncn2C)n(C)c1=O` [pentoxifylline], the “lipopolysaccharide-induced bowel erythrocyte extravasation” value in data set [8] was “reduces”. For the compound `COc1ccc(C2CNC(=O)C2)cc1OC1CCCC1` (centres unmarked) [rolipram], the “effects in dextran sulfate induced colitis (bleeding and inflammatory markers)” value in [4] is listed as “beneficial effects comparable to prednisolone”. The “relaxant activities of isoproterenol and forskolin” value in the data set with pulmonary artery rings is given as “potentiates”. Besides, in data set [9], the “lipopolysaccharide induced intestinal hypoperfusion” value is “attenuated”. Moreover, in [8], the “lipopolysaccharide induced erythrocyte extravasation” value is “attenuated” and the “lipopolysaccharide-induced bowel erythrocyte extravasation” value was “reduces”. The “plasma activities of ALT, AST and SDH” value in [12] (0.1 to 10 mg/kg i.p., mice) is listed as “dose-dependently inhibited”. For the same compound, in data set [12] (mouse, in vivo), the “concanavalin A-induced IL-4 release” value is listed as “suppress”. Also, in data set [13], the “clinical signs and MRI abnormalities” value is given as “suppress the appearance of clinical signs”. Moreover, in data set [14] (3 mg/kg twice daily when arthritis was apparent), the “development of the disease” value is reported as “progression of severity was halted”. In addition, the “TNF-α and IFN-γ mRNA expression in regional lymph nodes” value in data set [14] (rat, in vivo) was “strong down-regulation”. In the data set with gastric parietal cells, the “stimulation of acid secretion” value is reported as “very potent stimulator”. Also, in the data set on PDE4B mutant enzyme, the “inhibition of mutant PDE4B” value is listed as “critical for inhibition”.
